Measured values: US11696593B2, “Astaxanthin nutritional compositions and uses” (Bioscience Formulators, LLC, priority 2018, dated 2023)

Tested on: subject having diabetes with A1C as high as 13
Assay: blood A1C level of a diabetic subject, astaxanthin alone and then the daily dose (Example 4)
Format: in vivo, human
Details: one subject, 12-24 mg of astaxanthin a day
Description: They begin taking softgel capsules of the daily dose of Example 1 and after 6 weeks their blood A1C level is 5.6 with no changes in diet or habits.

**Q.** CC1=C(/C=C/C(C)=C/C=C/C(C)=C/C=C/C=C(C)/C=C/C=C(C)/C=C/C2=C(C)C(=O)C(O)CC2(C)C)C(C)(C)CC(O)C1=O (stereo not drawn) [astaxanthin, 3,3′-dihydroxy-β-carotene-4,4′-dione] was tested. Which blood A1C levels did it give?
**A.** ≤ 13%
